{
  "source": "paper PMC12735969",
  "about": "“Regulation of NAD^+ Homeostasis by SsNrtR in Streptococcus Sobrinus: A Critical Determinant of Its Cariogenic Potential” (Pathogens, 2025)",
  "biological_target": "T1, SsNrtR (Streptococcus sobrinus, UniProt A0ABM6W328)",
  "T1 construct": "gene DK182_01300; full-length, hexahistidine tag, pET28b-nrtR, E. coli BL21(DE3), Ni-NTA and Superdex 200; about 28 kDa; dimer and oligomers",
  "assay": "EMSA, release from pnuC/pncB promoter DNA",
  "format": "binding",
  "settings": "ADPR 0-1.0 mM; 200 bp pnuC/pncB promoter probe; allosteric anti-repressor",
  "data": [
    {"smiles": "Nc1ncnc2c1ncn2[C@@H]1O[C@H](COP(=O)(O)OP(=O)(O)OC[C@H]2OC(O)[C@H](O)[C@@H]2O)[C@@H](O)[C@H]1O", "note": "(stereo partly shown) [ADP-ribose]", "values": [
      {"measurement": "EMSA, release from pnuC/pncB promoter DNA", "value": "the interaction between SsNrtR and the pnuC/pncB DNA probe was disrupted by ADPR"}
    ]}
  ]
}
